# Reference: PubChem BioAssay (NCI)
# Values joined by “and” are separate entries in the source; they are usually repeats but may differ in a detail not shown here. Equal entries are not always repeated.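 All cell lines were grown in 96-well plates and treated with compound for 48 hours. GI50: concentration for 50% inhibition of growth. TGI: concentration producing complete growth inhibition.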
# Legend:
# Assay in all cases: NCI anticancer screen, dose series, 48 h
# SK-MEL-5 melanoma = system: SK-MEL-5 melanoma
# U251 CNS = system: U251 CNS
# OVCAR-3 ovarian = system: OVCAR-3 ovarian
# KM12 colon = system: KM12 colon
# SK-OV-3 ovarian = system: SK-OV-3 ovarian
# SR leukemia = system: SR leukemia
# CAKI-1 renal = system: CAKI-1 renal
# TK-10 renal = system: TK-10 renal
# HCC-2998 colon = system: HCC-2998 colon
# A549 NSCLC = system: A549 NSCLC
SMILES,GI50 (SK-MEL-5 melanoma),TGI (SK-MEL-5 melanoma),GI50 (U251 CNS),TGI (U251 CNS),GI50 (OVCAR-3 ovarian),TGI (OVCAR-3 ovarian),GI50 (KM12 colon),TGI (KM12 colon),GI50 (SK-OV-3 ovarian),TGI (SK-OV-3 ovarian),GI50 (SR leukemia),TGI (SR leukemia),GI50 (CAKI-1 renal),TGI (CAKI-1 renal),GI50 (TK-10 renal),TGI (TK-10 renal),GI50 (HCC-2998 colon),TGI (HCC-2998 colon),GI50 (A549 NSCLC),TGI (A549 NSCLC)
Cc1cccc2c1NC(=O)C2(c1ccc(O)cc1)c1ccc(O)cc1,15.9 µM,33.2 µM,18.9 µM,48.9 µM,< 0.01 µM,14 µM,3.68 µM,23.6 µM,19.2 µM,42 µM,14 µM,45.4 µM,26.2 µM,> 100 µM,0.0206 µM,39.1 µM,0.0706 µM,24.6 µM,21.1 µM,> 100 µM
COC(=O)c1cc(NC(=O)CN(CCN(CC(=O)O)CC(=O)Nc2ccc(O)c(C(=O)OC)c2)CC(=O)O)ccc1O,47.2 µM,> 100 µM,43.8 µM,> 100 µM,> 100 µM,> 100 µM,> 100 µM,> 100 µM,45.5 µM,> 100 µM,6.06 µM,48.7 µM,32 µM,> 100 µM,> 100 µM,> 100 µM,97.4 µM,> 100 µM,64.8 µM,> 100 µM
N#CC(C(=O)C(=O)Nc1ccc(Cl)c(Cl)c1)c1ccc(Cl)cc1 (centres undefined),–,> 100 µM,–,> 100 µM,–,> 100 µM,–,> 100 µM,–,> 100 µM,–,> 100 µM,–,> 100 µM,–,> 100 µM,–,> 100 µM,–,> 100 µM
CC1=C2[C@@H](c3ccccc3)C3C=CC2(c2ccccc23)N(C(=O)Nc2cccc3ccccc23)C1=O (some centres undefined),–,> 100 µM,–,> 100 µM,–,> 100 µM,–,> 100 µM,–,> 100 µM,–,> 100 µM,–,> 100 µM,–,–,–,> 100 µM,–,> 100 µM
COc1cccc2cc(-c3nc(C4CCC(C(=O)O)CC4)n4ncnc(N)c34)[nH]c12 (centres undefined),0.313 µM and 0.79 µM,4.19 µM and 5.7 µM,0.666 µM and 1.26 µM,> 100 µM,0.253 µM and 0.394 µM,4.27 µM and > 7.87 µM,0.33 µM and 0.59 µM,> 100 µM,0.223 µM and 0.278 µM,1.75 µM and 2.21 µM,0.295 µM and 0.31 µM,> 36.3 µM,0.33 µM and 0.326 µM,2.79 µM and 3.99 µM,0.15 µM and 0.411 µM,1.63 µM and 6.11 µM,0.451 µM and 0.729 µM,35.3 µM and > 10 µM,1.21 µM and 1.97 µM,11.8 µM and > 10 µM
CN1CCN(CCCN2c3ccccc3Sc3ccc(C(F)(F)F)cc32)CC1,1.65 µM,3.04 µM and 4.34 µM and 6.17 µM,1.7 µM,3.56 µM and 18.1 µM and 21.4 µM,1.93 µM and 6.26 µM and 13.8 µM,3.76 µM and 20.4 µM and 27 µM,1.85 µM,3.48 µM and 10.7 µM and 11.4 µM,1.92 µM,4.15 µM and 27.7 µM and 28.2 µM,2.72 µM and 2.09 µM and 8.62 µM,7.95 µM and > 20.4 µM and 27.2 µM,1.55 µM,3.36 µM and 22.4 µM and 23 µM,1.78 µM and 4.01 µM and 11.6 µM,3.23 µM and 12.1 µM and 24.8 µM,1.42 µM and 1.64 µM and 3.82 µM,3.02 µM and 3.21 µM and 8.68 µM,2.31 µM,6.47 µM and 24.5 µM and 25.2 µM
C=C(CN(C)C)C(=O)c1ccc(OC)cc1,–,18 µM,–,28.8 µM,–,10.4 µM,–,39.4 µM,–,41.3 µM,–,5.27 µM,–,5.18 µM,–,7.88 µM,–,22.4 µM,–,42.8 µM
Nc1ncnc2c1c(C(=O)NO)cn2C1OC(CO)C(O)C1O (centres undefined),0.739 µM,2.15 µM,0.419 µM,> 100 µM,0.278 µM,2.42 µM,0.267 µM,–,0.239 µM,2.07 µM,0.329 µM,1.88 µM,0.213 µM,2.5 µM,0.572 µM,> 31.4 µM,0.587 µM,6.83 µM,0.462 µM,> 40.4 µM
CCCN(CCC)c1ccc(/C=N/NC(=O)c2cccnc2)cc1,18.2 µM,42 µM,26.9 µM,> 100 µM,20.1 µM,45.3 µM,20.3 µM,> 100 µM,30.6 µM,> 100 µM,6.82 µM,> 100 µM,30.1 µM,> 100 µM,32.4 µM,> 100 µM,25 µM,> 100 µM,27.5 µM,> 100 µM
N#Cc1nc(Nc2ccc(Cl)cc2)sc1N,–,6.41 µM,–,34.1 µM,–,> 61.8 µM,–,> 86.5 µM,–,> 100 µM,–,11.6 µM,–,45.1 µM,–,> 76.6 µM,–,14.8 µM,–,> 67.1 µM
CO[C@]12CCC(=O)N1C=Cc1c2[nH]c2ccccc12,–,> 100 µM,–,–,–,> 100 µM,–,–,–,–,–,> 100 µM,–,> 100 µM,–,> 100 µM,–,> 100 µM,–,> 100 µM
COC(=O)C1=C(C)N(NC(=O)c2cccc(Cl)c2)C(C)(O)C12CCOC2=O (centres undefined),–,> 100 µM,–,> 100 µM,–,> 100 µM,–,> 100 µM,–,> 100 µM,–,> 100 µM,–,> 100 µM,–,–,–,> 100 µM,–,> 100 µM
CC(=O)Nc1ccc(S(=O)(=O)c2ccc(NC(C)=O)cc2)cc1,> 100 µM,> 100 µM,–,–,61.8 µM,> 100 µM,> 100 µM,> 100 µM,> 100 µM,> 100 µM,> 100 µM,> 100 µM,> 100 µM,> 100 µM,> 100 µM,> 100 µM,> 100 µM,> 100 µM,> 100 µM,> 100 µM
O=[N+]([O-])c1cc([N+](=O)[O-])c(C(Cl)C(Cl)c2ccccc2)cc1C(Cl)C(Cl)c1ccccc1 (centres undefined),–,3.29 µM,–,3.26 µM,–,5.06 µM,–,3.76 µM,–,80.1 µM,–,> 100 µM,–,3.25 µM,–,4.23 µM,–,3.33 µM,–,4.51 µM
NC(=O)OCC(COc1ccc(Cl)cc1)OC(=O)c1cc([N+](=O)[O-])cc([N+](=O)[O-])c1 (centres undefined),–,> 100 µM,–,> 100 µM,–,> 100 µM,–,> 100 µM,–,> 100 µM,–,> 100 µM,–,> 100 µM,–,> 100 µM,–,> 100 µM,–,> 100 µM
Cc1cccc2c1ccc1c3occ(C)c3c(=O)oc21,> 100 µM,> 100 µM,> 100 µM,> 100 µM,> 100 µM,> 100 µM,> 100 µM,> 100 µM,> 100 µM,> 100 µM,> 100 µM,> 100 µM,> 100 µM,> 100 µM,> 100 µM,> 100 µM,> 100 µM,> 100 µM,> 100 µM,> 100 µM
O=c1cc(-c2ccccc2)nc2cc(-c3ccco3)[nH]n12,6.58 µM,22.1 µM,4.74 µM,> 100 µM,10.8 µM,37.1 µM,3.26 µM,50.6 µM,14.2 µM,82.8 µM,3.14 µM,82.5 µM,5.21 µM,55.4 µM,19.8 µM,96.9 µM,13.3 µM,> 100 µM,12.6 µM,> 100 µM
O=C1C(Cl)=C(Nc2ccccn2)C(=O)c2ccccc21,1.65 µM,3.03 µM,3.24 µM,11 µM,1.86 µM,3.98 µM,3.45 µM,10.8 µM,13.9 µM,26.9 µM,2.49 µM,5.32 µM,3.82 µM,18.8 µM,12.9 µM,25.5 µM,17.8 µM,33.7 µM,9.02 µM,37 µM
[O]=[W](=[O])([OH])[OH],> 100 µM,> 100 µM,> 100 µM,> 100 µM,> 100 µM,> 100 µM,> 100 µM,> 100 µM,–,–,> 100 µM,> 100 µM,> 100 µM,> 100 µM,> 100 µM,> 100 µM,> 100 µM,> 100 µM,> 100 µM,> 100 µM
CC(=O)OC1CC(C)c2c(Cl)ncnc21 (centres undefined),> 100 µM,> 100 µM,–,–,> 100 µM,> 100 µM,> 100 µM,> 100 µM,> 100 µM,> 100 µM,78.2 µM,> 100 µM,45.7 µM,> 100 µM,> 100 µM,> 100 µM,> 100 µM,> 100 µM,> 100 µM,> 100 µM
COc1cc2c3c(c1OCc1ccccc1)NCCC3NCC2 (centres undefined),–,> 100 µM,–,> 100 µM,–,> 100 µM,–,> 100 µM,–,–,–,> 100 µM,–,> 100 µM,–,> 100 µM,–,> 100 µM,–,> 100 µM
Cc1ccc(S(=O)(=O)NC(=O)C#CCOC2CCCCO2)cc1 (centres undefined),–,> 100 µM,–,> 100 µM,–,> 100 µM,–,–,–,–,–,> 100 µM,–,> 100 µM,–,> 100 µM,–,> 100 µM,–,> 100 µM
CNC(=O)OCc1cc2ccncc2c2c1[nH]c1ccccc12,–,> 100 µM,–,> 100 µM,–,> 100 µM,–,> 100 µM,–,–,–,> 33.2 µM,–,> 100 µM,–,> 100 µM,–,> 100 µM,–,> 100 µM
C/C=C1\C[C@@H]2C(OC)Nc3cc(O)c(OC)cc3C(=O)N2C1 (some centres undefined),0.00327 µM,0.00889 µM,0.00353 µM,10.1 µM,0.00419 µM,0.0341 µM,–,0.34 µM and 0.0408 µM,0.00827 µM,2.37 µM,–,0.0602 µM,0.00752 µM,–,–,–,< 0.0178 µM,0.0358 µM and 0.023 µM,0.0215 µM,> 100 µM
